“Also recorded” adds a separate entry of the source. Like-named read-outs stand apart in the source and are kept apart here.
Columns and labels:
N2a NM-GFP^sol cells = format: cell-based, mouse; conditions: for percentage of recipient cells with NM-GFP aggregates: compounds added to cocultures 1 h after co-seeding, three concentrations, 12 h
HEK NM-mCherry^sol cells = test: NM-mCherry aggregate induction by coculture with T47D NM-GFP^agg donor cells; format: cell-based, human; conditions: 10 μM, donors 1 d pretreated, coculture 1 d in presence of drug; vs DMSO
[1] = test system: HEK Tau-FusionRed^sol cells; test: Tau-FusionRed aggregate induction by coculture with T47D Tau-GFP^AD or Tau-GFP^FTLD donor cells; format: cell-based, human; conditions: T47D Tau-GFP^AD or Tau-GFP^FTLD donors pretreated one day with 10 μM, coculture 3 d in presence of drug; vs DMSO
Protocol: FIG. 4: Human endogenous retrovirus proteins potentiate intercellular Tau aggregate induction. • a. Workflow of Amprenavir treatment. […]. Two days later, these donor cells were incubated with 10 μM Amprenavir or solvent control DMSO for 1 d. Subsequently, donor cells with NM-GFP^agg, Tau-GFP^FTLD or Tau-GFP^AD aggregates were cocultured with recipient HEK NM-mCherry^sol or HEK Tau-FusionRed^sol cells, respectively, for 1 d (NM) or 3 d (Tau) in the presence of 10 μM Amprenavir or DMSO. • b. […] Percentage of recipient HEK NM-Cherry cells that harbor induced NM-mCherry aggregates. • c., d. […] Percentage of HEK Tau-FusionRed cells that harbor Tau-FusionRed^agg after coculture with T47D Tau-GFP^agg donor cell lines (n=6, ***, p<0.001; unpaired student t test).
To examine the effect of HERV-K proteins on Tau aggregate spreading, a T47D donor cell line stably expressing Tau-GFP^sol was generated. […]
The treatment of cells with Amprenavir (10 μM; Santa Cruz) and DMSO was performed for 72 h in EV-depleted medium in T175 flasks. Afterwards, the total numbers of viable cells and the viability upon drug treatment were determined using the Vi-VELL™ XR Cell Viability Analyzer (Beckman Coulter). […]

[2] = test system: HERV-W Env (Syncytin-1) mRNA; test: Quantitative real-time PCR of Syncytin-1 in MCF-7 cells; format: cell-based, human; conditions: MCF-7 Tau-GFPAD cells, 2 μM for 4 d; vs DMSO
Protocol: FIG. 14: Human endogenous retroviruses contribute to the spreading of protein aggregates. • a. Experimental workflow. A human breast cancer cell line MCF-7 (4) was engineered to stably express Tau-GFP and induced to propagate Tau aggregates by exposure to Alzheimer's disease brain homogenate (AD). A single cell clone was subsequently isolated and used in the experiment (MCF-7 Tau-GFPAD). This donor clone was treated with 2 μM 5-Aza-2-deoxycytidine (Aza) for 4 d to de-repress HERV expression. Pretreated donor cells were cocultured with HEK-Tau-FRsol cells. • b. […] Statistics: Unpaired Student's t-test (n=3). • c. Quantitative analysis of recipient cells with induced Tau-FR aggregates following coculture with DMSO-treated or Aza-treated donor cells. Statistics: Unpaired Student's t-test (n=6). • d. […] Recipients were subsequently cocultured with transduced donors that had been passaged at least 5 times post transduction. • e. shRNA-mediated downregulation of Syncytin-1 mRNA in MCF-7 Tau-GFPAD cells assessed by quantitative real-time PCR. […] Quantitative analysis of recipient cells with induced Tau-FR aggregates following coculture with donors with decreased HERV-W Syncytin-1 expression. […]
Total RNAs from cell pellets were isolated using the RNeasy Mini Kit or RNeasy Lipid Tissue Mini Kit (Qiagen). RNA concentration and quality were determined with Agilent 2100 Bioanalyzer System. […]

Row | SMILES | percentage of recipient cells with NM-GFP aggregates (N2a NM-GFP^sol cells; vs DMSO) | percentage of recipient cells with NM-GFP aggregates (N2a NM-GFP^sol cells; vs DMSO, listed as amprenavir) | intercellular aggregate induction during coculture (N2a NM-GFP^sol cells; donor cells pre-treated with 10 μM for 3 days, coculture in the absence of drug, 16 h) | number of recipient cells with induced NM-mCherry aggregates (HEK NM-mCherry^sol cells) | Tau aggregate induction in recipient cells [1] | NM aggregate induction in recipient cells cocultured with pretreated donors (N2a NM-GFP^sol cells; s2E P1 donors pretreated, Aza 200 nM or Dec 100 nM, vs DMSO) | Syncytin-1 mRNA levels [2]
1 | CC(C)CN(C[C@@H](O)[C@H](Cc1ccccc1)NC(=O)O[C@H]1CCOC1)S(=O)(=O)c1ccc(N)cc1 [Amprenavir] | reduce aggregate induction; also recorded: observed only when donor cells were cotreated | reduced the percentage of recipient cells with NM-GFP aggregates | significantly inhibited intercellular aggregate induction during coculture | reduced the number of recipient cells with induced NM-mCherry aggregates compared to the DMSO control; also recorded: impairs NM-mCherry aggregate induction | significant decrease in Tau aggregate induction in recipient cells; also recorded: impairs Tau-FusionRed aggregate induction | – | –
2 | Nc1ncn([C@H]2C[C@H](O)[C@@H](CO)O2)c(=O)n1 [Decitabine, 5-aza-2′-deoxycytidine] | – | – | – | – | – | significantly increased NM aggregate induction in recipient cells | enhanced Syncytin-1 mRNA levels; also recorded: increased HERV-W Env (Syncytin-1) expression

— US20220332799A1, “HERV INHIBITORS FOR USE IN TREATING TAUOPATHIES” (Deutsches Zentrum Für Neurodegenerative Erkrankungen E.V. …, priority 2019, published 2022)
